2 compounds from patent publication US12502374B2, “Composition for preventing, alleviating, or treating inflammatory disease containing isookanin or salt thereof as active ingredient” (BioSpectrum, Inc., priority 2020, dated 2025) can be followed below.

Series [1] deals with HMEC-1. Kind of series: PGE2-induced vascular endothelial cell tube formation on Matrigel. Type of series: cell-based, human. Conditions: 20 μM, 24 hours; compared with 100 ng/ml VEGF. The method, then: Human vascular endothelial cells (HMEC-1) were seeded in a Matrigel-coated 24-well plate at a density of 1.2×10^5 cells per well, and each well was pretreated with 10 ppm of isookanin for 2 hours. Next, each well was treated with PGE2 at a concentration of 20 μM and incubated for 24 hours. As a negative control, 100 ng/ml of VEGF was used. After 24 hours of incubation, the degree of vascular cell tube formation was observed using a microscope, and the results were photographed with a microscope camera and analyzed with Image J, and are shown in FIGS. 10 and 11.

In series [2] the test system is HMEC-1. Description: PGE2-induced vascular endothelial cell migration (scratch assay). It counts as cell-based, human. Conditions: 20 μM, 24 hours; compared with 100 ng/ml VEGF. The protocol: Human vascular endothelial cells (HMEC-1) were seeded in a 12-well plate at a density of 2×10^5 cells per well and cultured in an incubator for 24 hours at 37° C. under 5% CO2. After the cells in each well were grown to 80% confluency, the central part of each well was scratched using a yellow pipette tip. Next, each well was pretreated with each concentration of isookanin for 2 hours and then treated with 20 μM PGE2 and incubated for 24 hours. As a negative control, 100 ng/ml of VEGF was used. After 24 hours of incubation, the degree of vascular cell migration was observed using a microscope, and the results were photographed with a microscope camera and shown in FIG. 9.

The test system of series [3] is human skin. Description: Human skin safety, repeated insult patch test (Finn chamber). It counts as in vivo. Conditions: 30 healthy adults; 10th patch test; dash = no subject.
Series [4] has as its system human skin. The description is as above. Type of series: in vivo. Conditions: 30 healthy adults. The protocol:
In order to confirm that the isookanin according to the present invention is safe for human skin, a skin safety verification test was performed. To this end, a repeated insult patch test was conducted.
Nourishing creams containing the isookanin in amounts of 0.1%, 0.5% and 1%, respectively, were prepared. Specifically, a water phase containing purified water, triethanolamine and propylene glycol was dissolved by heating to 70° C. and then emulsified by adding a solution obtained by dissolving beeswax, liquid paraffin, an oil component, an emulsifier and a preservative by heating to 70° C. After completion of emulsification, the solution was cooled to 45° C., and the isookanin was added thereto in amounts of 0.1%, 0.5% and 1% and dispersed therein, followed by cooling to 30° C. As the content of the isookanin was increased from 0.1% to 0.5% and 1%, the content of liquid paraffin was decreased from 9.91% to 9.51% and 9.01%, respectively, thereby preparing nourishing creams.
Using the nourishing creams prepared as described above, a repeated insult patch test was conducted on the upper arm areas of 30 healthy adults every other day for a total of 9 times for 24 hours per time to determine whether the isookanin irritated the skin.
The patch test was performed using a Finn chamber (Epitest Ltd., Finland). 15 μl of each of the external skin preparations was dropped into the chamber, and then the patch test was performed.
[Equation 1] Average degree of reaction=[[(reaction index×degree of reaction)/(total number of subjects×highest score (4)]×100]÷number of tests (9)
In the degree of reaction, ± represents a score of 1, + represents a score of 2, and ++ represents a score of 4. When the average degree of reaction is less than 3, the corresponding composition is determined to be safe.

Turning to `CCCCC[C@H](O)/C=C/[C@H]1[C@H](O)CC(=O)[C@@H]1C/C=C\CCCC(=O)O` [PGE2, reference compound], the “effect on vascular cell tube formation” value with HMEC-1 [1] is “promoted vascular cell tube formation, similar to VEGF”. Further, the “effect on vascular endothelial cell migration” value in the series with HMEC-1 [2] was “promoted vascular endothelial cell migration, similar to VEGF”.
As for `CC(C)=CCC/C(C)=C/CC/C(C)=C/CC/C=C(\C)CC/C=C(\C)CCC=C(C)C` [squalene], in the series on human skin [3], the “Number of subjects showing reaction (±, +, ++), 10th” value is on record as “- - -”. Also, in the series with human skin [4] (upper arm, 24 hours per patch, Equation 1, less than 3 is determined to be safe), the “Average degree of reaction” value stood at 0.09. Further, the “Number of subjects showing reaction (±, +, ++), 1st” value in the series with human skin [4] (1st patch test, dash = no subject) was “- - -”. Also, the “Number of subjects showing reaction (±, +, ++), 2nd” value with human skin [4] (2nd patch test, dash = no subject) is “- - -”. The “Number of subjects showing reaction (±, +, ++), 5th” value in the series with human skin [4] (5th patch test, dash = no subject) is reported as “- - -”. In addition, in the series with human skin [4] (6th patch test, dash = no subject), the “Number of subjects showing reaction (±, +, ++), 6th” value is on record as “- -”. For the same compound, the “Number of subjects showing reaction (±, +, ++), 7th” value in the series on human skin [4] (7th patch test, dash = no subject) is given as “- - -”. Also, in the series with human skin [4] (8th patch test, dash = no subject), the “Number of subjects showing reaction (±, +, ++), 8th” value is “- - -”. For the same compound, the “Number of subjects showing reaction (±, +, ++), column between 3rd and 5th” value in the series with human skin [4] (dash = no subject) was “- - -”.
